Patent publication US8410302B2, “Methoxyimino compounds and fungicide composition comprising same” (Kyung Nong Corporation, priority 2007, dated 2013)

Key:
[1] = system: Pyricularia oryzae Carvara KA301; assay: whole plant or invertebrate; type: in vivo; details: rice blast
[2] = system: Botrytis cinerae; assay: Fungicidal activity against cucumber gray mold rot (CGM) disease, control value; type: in vivo; details: 100 ppm, cucumber gray mold rot
[3] = system: Phytophthora infestans; assay: whole plant or invertebrate; type: in vivo; details: tomato late blight
[4] = system: Puccinia recondita; assay: Fungicidal activity against wheat leaf rust (WLR) disease, control value; type: in vivo; details: wheat leaf rust
[5] = system: Erysiphae graminis; assay: Fungicidal activity against barley powdery mildew (BPM) disease, control value; type: in vivo; details: barley powdery mildew
[6] = system: Rhizoctonia solani AG-1; assay: Fungicidal activity against rice sheath blight (RSB) disease, control value; details: rice sheath blight

| Compound | RCB control value (C.V.) ([1]; 2 ppm) | RCB control value (C.V.) ([1]; 10 ppm) | RCB control value (C.V.) ([1]; 50 ppm) | RCB control value (C.V.) ([1]; 100 ppm) | CGM control value (C.V.) [2] | TLB control value (C.V.) ([3]; 2 ppm) | TLB control value (C.V.) ([3]; 10 ppm) | TLB control value (C.V.) ([3]; 50 ppm) | TLB control value (C.V.) ([3]; 100 ppm) | WLR control value (C.V.) ([4]; 2 ppm) | WLR control value (C.V.) ([4]; 10 ppm) | WLR control value (C.V.) ([4]; 50 ppm) | WLR control value (C.V.) ([4]; 100 ppm) | BPM control value (C.V.) ([5]; 2 ppm) | BPM control value (C.V.) ([5]; 10 ppm) | BPM control value (C.V.) ([5]; 50 ppm) | BPM control value (C.V.) ([5]; 100 ppm) | RSB control value (C.V.) ([6]; 100 ppm) | further results |
| --- | --- | --- | --- | --- | --- | --- | --- | --- | --- | --- | --- | --- | --- | --- | --- | --- | --- | --- | --- |
| CNC(=O)/C(=N/OC)c1ccccc1CON=C(C)c1cccc(C=C(Cl)Cl)c1 [Example 20, (E)-2-[[[[[2-[3-(2,2-dichlorovinyl)phenyl](1-methyl)methylidene]amino]oxy]methyl]phenyl]-2-methoxyimino-N-methylacetamide] | 90% | 97% | 100% | 100% | 74% | 98% | 100% | 100% | 100% | 30% | 90% | 98% | 100% | 100% | 100% | 100% | 100% | 75% |  |
| CO/N=C(/C(=O)OC)c1ccccc1CON=C(C)c1ccc(C=C(Cl)Cl)cc1 [Example 21, methyl-(E)-2-[[[[[2-[4-(2,2-dichlorovinyl)phenyl](1-methyl)methylidene]amino]oxy]methyl]phenyl]-2-methoxyiminoacetate] | 30% | 90% | 100% | 100% | 50% | 0% | 35% | 95% | 98% | 40% | 90% | 100% | 100% | 20% | 50% | 95% | 95% | 60% |  |
| CNC(=O)/C(=N/OC)c1ccccc1CON=C(C)c1ccc(C=C(Cl)Cl)cc1 [Example 22, (E)-2-[[[[[2-[4-(2,2-dichlorovinyl)phenyl](1-methyl)methylidene]amino]oxy]methyl]phenyl]-2-methoxyimino-N-methylacetamide] | 100% | 100% | 100% | 100% | 45% | 90% | 100% | 100% | 100% | 100% | 100% | 100% | 100% | 98% | 100% | 100% | 100% | 100% | RSB control value (C.V.) ([6]; 2 ppm): 90%; RSB control value (C.V.) ([6]; 10 ppm): 98%; RSB control value (C.V.) ([6]; 50 ppm): 100% |
